Experimental data reported in patent publication US9187472B2 (AbbVie Inc., priority 2012, dated 2015).

Experiments:
[1] = biological target: NAMPT (human, recombinant, C-terminally His-tagged) (Homo sapiens, UniProt P43490); assay: Time-Resolved Fluorescence Resonance Energy Transfer (TR-FRET) Binding Assay of NAMPT; settings: without substrates; 6.8 nM NAMPT, 200 nM probe, 3 hours equilibration
Procedure, shortened: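 11-pt half-log compound series; final 6.8 nM NAMPT, 200 nM OG488 nicotinamide-competitive probe, 1 nM Tb-anti-His Ab, 2% DMSO, HEPES pH 7.5/NaCl/MgCl2/DTT/glycerol buffer. 3 h RT equilibration. Em520/Em495 ratio (Ex 337 nm), control-normalized, 4-parameter fit → IC50.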

NAMPT = NAMPT (Homo sapiens, UniProt P43490); assay: TR-FRET Binding Assay of NAMPT with PRPP; settings: with 200 μM PRPP and 2.5 mM ATP; 2 nM NAMPT, 2 nM probe, 16 hours equilibration
Procedure, shortened: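 TR-FRET probe-displacement binding with 2 nM NAMPT, 2 nM probe and 1 nM Tb-anti-His antibody, run in the presence of 200 μM PRPP and 2.5 mM ATP at 2% DMSO. Equilibrated 16 hours before reading so test compounds could undergo enzymatic modification.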

PC3 cells = assay: NAMPT Cell Proliferation Assay; format: cell-based; settings: Homo sapiens, PC-3, 120 h, 5 days incubation, cell viability by Cell Titer Glo
Procedure, shortened: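 Proliferation of PC3 cells treated 5 days with a 10-fold compound series (top 10 μM) was quantified by Cell Titer Glo luminescence; IC50s were fitted from percent inhibition.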

Sequence of NAMPT (P43490 whole entry): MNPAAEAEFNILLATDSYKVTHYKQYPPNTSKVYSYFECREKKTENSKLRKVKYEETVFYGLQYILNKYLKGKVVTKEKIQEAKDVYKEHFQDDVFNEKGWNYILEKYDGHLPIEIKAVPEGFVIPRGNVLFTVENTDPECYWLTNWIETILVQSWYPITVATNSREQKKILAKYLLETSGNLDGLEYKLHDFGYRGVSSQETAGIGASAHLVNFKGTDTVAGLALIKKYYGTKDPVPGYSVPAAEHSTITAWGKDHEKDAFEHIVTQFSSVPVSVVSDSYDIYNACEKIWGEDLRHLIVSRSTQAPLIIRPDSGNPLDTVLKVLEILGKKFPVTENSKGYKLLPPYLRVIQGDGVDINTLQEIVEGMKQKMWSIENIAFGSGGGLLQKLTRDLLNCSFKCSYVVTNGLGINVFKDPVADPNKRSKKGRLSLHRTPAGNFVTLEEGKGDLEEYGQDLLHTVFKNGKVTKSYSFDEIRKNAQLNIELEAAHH
Sequence of NAMPT (human, recombinant, C-terminally His-tagged) (P43490 whole entry): as above

Compound	IC50 [1] [nM]	IC50 (NAMPT) [nM]	IC50 (PC3 cells) [nM]
COCCC(=O)N(C[C@@H]1CCCO1)c1ncc(C(=O)NCc2ccc3nccn3c2)s1 [Example 148, N-(imidazo[1,2-a]pyridin-6-ylmethyl)-2-{(3-methoxypropanoyl)[(2S)-tetrahydrofuran-2-ylmethyl]amino}-1,3-thiazole-5-carboxamide]	6230	1.35	41.5
O=C(NCc1ccc2nccn2c1)c1cnc(N(C[C@@H]2CCCO2)C(=O)C2CCOC2)s1 (stereo partly drawn) [Example 149, N-(imidazo[1,2-a]pyridin-6-ylmethyl)-2-{(tetrahydrofuran-3-ylcarbonyl)[(2S)-tetrahydrofuran-2-ylmethyl]amino}-1,3-thiazole-5-carboxamide]	> 10000	4.86	26.6
O=C(NCc1ccc2nccn2c1)c1cnc(N(C[C@@H]2CCCO2)C(=O)C2CCOCC2)s1 [Example 150, N-(imidazo[1,2-a]pyridin-6-ylmethyl)-2-{[(2S)-tetrahydrofuran-2-ylmethyl](tetrahydro-2H-pyran-4-ylcarbonyl)amino}-1,3-thiazole-5-carboxamide]	6110	3.49	36.2
COCCNC(=O)N(CC1CCOCC1)c1ncc(C(=O)NCc2ccc3nccn3c2)s1 [Example 151, N-(imidazo[1,2-a]pyridin-6-ylmethyl)-2-{[(2-methoxyethyl)carbamoyl](tetrahydro-2H-pyran-4-ylmethyl)amino}-1,3-thiazole-5-carboxamide]	7150	5.54	76.1
CC(C)OCCNC(=O)N(CC1CCOCC1)c1ncc(C(=O)NCc2ccc3nccn3c2)s1 [Example 152, N-(imidazo[1,2-a]pyridin-6-ylmethyl)-2-[{[2-(propan-2-yloxy)ethyl]carbamoyl}(tetrahydro-2H-pyran-4-ylmethyl)amino]-1,3-thiazole-5-carboxamide]	3600	6.91	28.3
COCCNC(=O)N(C[C@H]1CCCO1)c1ncc(C(=O)NCc2ccc3nccn3c2)s1 [Example 153, N-(imidazo[1,2-a]pyridin-6-ylmethyl)-2-{[(2-methoxyethyl)carbamoyl][(2R)-tetrahydrofuran-2-ylmethyl]amino}-1,3-thiazole-5-carboxamide]	118	1.88	3.73
CC(C)OCCNC(=O)N(C[C@H]1CCCO1)c1ncc(C(=O)NCc2ccc3nccn3c2)s1 [Example 154, N-(imidazo[1,2-a]pyridin-6-ylmethyl)-2-({[2-(propan-2-yloxy)ethyl]carbamoyl}[(2R)-tetrahydrofuran-2-ylmethyl]amino)-1,3-thiazole-5-carboxamide]	194	2.6	6.67
COCCNC(=O)N(C[C@@H]1CCCO1)c1ncc(C(=O)NCc2ccc3nccn3c2)s1 [Example 155, N-(imidazo[1,2-a]pyridin-6-ylmethyl)-2-{[(2-methoxyethyl)carbamoyl][(2S)-tetrahydrofuran-2-ylmethyl]amino}-1,3-thiazole-5-carboxamide]	3370	2.3	17.6
CC(C)OCCNC(=O)N(C[C@@H]1CCCO1)c1ncc(C(=O)NCc2ccc3nccn3c2)s1 [Example 156, N-(imidazo[1,2-a]pyridin-6-ylmethyl)-2-({[2-(propan-2-yloxy)ethyl]carbamoyl}[(2S)-tetrahydrofuran-2-ylmethyl]amino)-1,3-thiazole-5-carboxamide]	3270	3.18	28
CC(C)OCCNC(=O)N(CC1CCOC1)c1ncc(C(=O)NCc2ccc3nccn3c2)s1 (stereo not drawn) [Example 157, N-(imidazo[1,2-a]pyridin-6-ylmethyl)-2-[{[2-(propan-2-yloxy)ethyl]carbamoyl}(tetrahydrofuran-3-ylmethyl)amino]-1,3-thiazole-5-carboxamide]	4140	1.1	29.2
O=C(NCc1ccc2nccn2c1)c1cnc(N2CC(c3ccc(Cl)cc3)OC2=O)s1 (stereo not drawn) [Example 158, 2-[5-(4-chlorophenyl)-2-oxo-1,3-oxazolidin-3-yl]-N-(imidazo[1,2-a]pyridin-6-ylmethyl)-1,3-thiazole-5-carboxamide]	341	6.39	191
CC(C)C(=O)N1CCC(Oc2ccc(C(=O)NCc3ccc4nccn4c3)cc2)CC1 [Example 159, N-(imidazo[1,2-a]pyridin-6-ylmethyl)-4-{[1-(2-methylpropanoyl)piperidin-4-yl]oxy}benzamide]	2490	2.16	233
CC(=O)N1CCC(Oc2ccc(C(=O)NCc3ccc4nccn4c3)cc2)CC1 [Example 160, 4-[(1-acetylpiperidin-4-yl)oxy]-N-(imidazo[1,2-a]pyridin-6-ylmethyl)benzamide]	3220	1.26	915
O=C(NCc1ccc2nccn2c1)c1ccc(OC2CCN(C(=O)C3CC3)CC2)cc1 [Example 161, 4-{[1-(cyclopropylcarbonyl)piperidin-4-yl]oxy}-N-(imidazo[1,2-a]pyridin-6-ylmethyl)benzamide]	1310	2.89	635
O=C(NCc1ccc2nccn2c1)c1ccc(OC2CCN(C(=O)C3CCOCC3)CC2)cc1 [Example 162, N-(imidazo[1,2-a]pyridin-6-ylmethyl)-4-{[1-(tetrahydro-2H-pyran-4-ylcarbonyl)piperidin-4-yl]oxy}benzamide]	2570	2.09	43.6
O=C(NCc1ccc2nccn2c1)c1ccc(OC2CCN(C(=O)C3COCCO3)CC2)cc1 (stereo not drawn) [Example 163, 4-{[1-(1,4-dioxan-2-ylcarbonyl)piperidin-4-yl]oxy}-N-(imidazo[1,2-a]pyridin-6-ylmethyl)benzamide]	2100	6.29	96.4
O=C(NCc1ccc2nccn2c1)c1ccc(OC2CCN(C(=O)[C@@H]3CCCO3)CC2)cc1 [Example 164, N-(imidazo[1,2-a]pyridin-6-ylmethyl)-4-({1-[(2S)-tetrahydrofuran-2-ylcarbonyl]piperidin-4-yl}oxy)benzamide]	2460	3.46	101
O=C(NCc1ccc2nccn2c1)c1ccc(OC2CCN(C(=O)[C@H]3CCCO3)CC2)cc1 [Example 165, N-(imidazo[1,2-a]pyridin-6-ylmethyl)-4-({1-[(2R)-tetrahydrofuran-2-ylcarbonyl]piperidin-4-yl}oxy)benzamide]	1530	1.61	137
CC(C)(O)C(=O)N1CCC(Oc2ccc(C(=O)NCc3ccc4nccn4c3)cc2)CC1 [Example 166, 4-{[1-(2-hydroxy-2-methylpropanoyl)piperidin-4-yl]oxy}-N-(imidazo[1,2-a]pyridin-6-ylmethyl)benzamide]	1430	1.81	97.1
CC(C)OCC(=O)N1CCC(Oc2ccc(C(=O)NCc3ccc4nccn4c3)cc2)CC1 [Example 167, N-(imidazo[1,2-a]pyridin-6-ylmethyl)-4-({1-[(propan-2-yloxy)acetyl]piperidin-4-yl}oxy)benzamide]	1730	2.52	104
CCCC(=O)N1CCC(Oc2ccc(C(=O)NCc3ccc4nccn4c3)cc2)CC1 [Example 168, 4-[(1-butanoylpiperidin-4-yl)oxy]-N-(imidazo[1,2-a]pyridin-6-ylmethyl)benzamide]	1110	0.951	208
COCC(C)C(=O)N1CCC(Oc2ccc(C(=O)NCc3ccc4nccn4c3)cc2)CC1 (stereo not drawn) [Example 169, N-(imidazo[1,2-a]pyridin-6-ylmethyl)-4-{[1-(3-methoxy-2-methylpropanoyl)piperidin-4-yl]oxy}benzamide]	375	4.25	26.9
O=C(NCc1ccc2nccn2c1)c1ccc(OC2CCN(C(=O)CC(F)(F)F)CC2)cc1 [Example 170, N-(imidazo[1,2-a]pyridin-6-ylmethyl)-4-{[1-(3,3,3-trifluoropropanoyl)piperidin-4-yl]oxy}benzamide]	3360	2.25	604
O=C(NCc1ccc2nccn2c1)c1ccc(OC2CCN(C(=O)CC3CCOCC3)CC2)cc1 [Example 171, N-(imidazo[1,2-a]pyridin-6-ylmethyl)-4-{[1-(tetrahydro-2H-pyran-4-ylacetyl)piperidin-4-yl]oxy}benzamide]	2170	2.51	44.7
O=C(NCc1ccc2nccn2c1)c1ccc(OC2CCN(C(=O)CC3CC3)CC2)cc1 [Example 172, 4-{[1-(cyclopropylacetyl)piperidin-4-yl]oxy}-N-(imidazo[1,2-a]pyridin-6-ylmethyl)benzamide]	2210	3.55	223
O=C(NCc1ccc2nccn2c1)c1ccc(OC2CCN(C(=O)CC3CCCO3)CC2)cc1 (stereo not drawn) [Example 173, N-(imidazo[1,2-a]pyridin-6-ylmethyl)-4-{[1-(tetrahydrofuran-2-ylacetyl)piperidin-4-yl]oxy}benzamide]	1510	1.24	50.1
